Results taken from patent publication US4681966A, “Intermediate for thiol based collagenase inhibitors” (G. D. Searle & Co., priority 1986, dated 1987).

Biological target: T1, Human Rheumatoid Synovial collagenase (Homo sapiens, UniProt P03956)
T1 construct: Synovial collagenase; from tissue; host or cells: human rheumatoid synovium (from the enzyme's printed name)
T1 sequence (P03956 100-469): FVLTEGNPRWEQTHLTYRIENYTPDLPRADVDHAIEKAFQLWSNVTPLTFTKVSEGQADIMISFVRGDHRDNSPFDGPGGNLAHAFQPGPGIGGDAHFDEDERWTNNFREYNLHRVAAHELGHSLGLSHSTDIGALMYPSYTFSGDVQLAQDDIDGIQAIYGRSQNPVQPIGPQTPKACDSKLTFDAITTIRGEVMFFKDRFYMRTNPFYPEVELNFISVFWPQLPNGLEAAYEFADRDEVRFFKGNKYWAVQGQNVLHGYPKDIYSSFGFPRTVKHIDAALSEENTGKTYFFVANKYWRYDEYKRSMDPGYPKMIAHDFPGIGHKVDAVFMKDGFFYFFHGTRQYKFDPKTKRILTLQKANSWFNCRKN
Test: Inhibition of collagenase: acetyl 14C collagen degradation (Cawston and Barrett), concentration effecting 50% inhibition
Type: biochemical
Conditions: Table 3; comparison R1 = H vs CH3; 37° C., 16 hours, pH 7.6; read-out: IC50 against human rheumatoid sinovial [collagenase]
Procedure: This was determined following the procedure of Cawston and Barrett, Anal. Biochem,. 99, 340-345 (1979) whereby the 1 mM of the inhibitor being tested or dilutions thereof are incubated at 37° C. for 16 hours with native collagen and collagenase (buffered with Tris HCl--CaCl2; pH 7.6). The collagen is acetyl ^14 C collagen. The samples are centrifuged to sediment undigested collagen and an aliquot of the radiactive supernatant removed for assay on a scintillation counter as a measure of hydrolysis. The collagenase activity in the presence of 1 mM inhibitor, or a dilution thereof, is compared to activity in a control devoid of inhibitor and the results reported as that inhibitor concentration effecting 50% inhibition of the collagenase.
This was determined following the procedure of Cawston and Barrett, Anal. Biochem., 99, 340-345 (1979) whereby the 1 mM of the inhibitor being tested or dilutions thereof are incubated at 37° C. for 16 hours with native collagen and collagenase (buffered with Tris HCl--CaCl2; pH 7.6). The collagen is acetyl […] collagen. The samples are centrifuged to sediment undigested collagen and an aliquot of the radioactive supernatant removed for assay on a scintillation counter as a measure of hydrolysis. […]

IC50: 450 nM
SMILES: CNC(=O)[C@@H](NC(=O)C(CC(C)C)C(C)S)[C@@H](C)OCc1ccccc1 (stereo partly drawn) [Example 6 A, N-[2-(1-Mercaptoethyl)-4-methylpentanoyl]-O-benzyl-L-threonine N-Methylamide]
